Reference: patent US20090099029A1, “Methods and substrates for conducting assays” (Invitrogen Corporation, priority 2005, published 2009)
Like-named read-outs stand apart in the source and are kept apart here.

What was measured:
[1] = target: kinases of Table 5 (Homo sapiens, UniProt O75914); assay: Further analysis of a plurality of inhibitors and a plurality of kinases (Table 5 inhibition results); format: biochemical; design: scale not given here; details: for Inhibition level: kinase PAK3; for Inhibition Results (Level): kinase PAK3 (Part II, plate D4, Domain 1)
Chain of kinases of Table 5 (Homo sapiens, UniProt O75914) (O75914 whole entry): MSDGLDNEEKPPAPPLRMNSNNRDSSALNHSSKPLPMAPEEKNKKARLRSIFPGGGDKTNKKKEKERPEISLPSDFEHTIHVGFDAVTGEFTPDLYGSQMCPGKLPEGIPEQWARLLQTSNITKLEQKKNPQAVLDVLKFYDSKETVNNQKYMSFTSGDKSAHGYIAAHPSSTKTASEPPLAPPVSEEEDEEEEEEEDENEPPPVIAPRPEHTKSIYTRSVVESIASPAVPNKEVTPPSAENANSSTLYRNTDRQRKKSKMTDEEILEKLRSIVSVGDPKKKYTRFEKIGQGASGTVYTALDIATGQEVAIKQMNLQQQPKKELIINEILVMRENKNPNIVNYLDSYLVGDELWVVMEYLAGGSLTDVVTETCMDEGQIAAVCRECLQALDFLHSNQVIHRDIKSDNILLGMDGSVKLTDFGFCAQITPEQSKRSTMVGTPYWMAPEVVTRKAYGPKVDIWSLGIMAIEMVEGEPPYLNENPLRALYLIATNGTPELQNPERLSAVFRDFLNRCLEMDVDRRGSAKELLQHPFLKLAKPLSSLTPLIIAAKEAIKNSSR
Excerpt: (§1) The wash solution is then discarded.

[2] = target: kinases of Table 5 (Homo sapiens, UniProt P09769); assay: as above; format: biochemical; design: scale not given here; details: for Inhibition level: kinase FGR; for Inhibition Results (Level): kinase FGR (Part II, plate B10, Domain 0)
Chain of kinases of Table 5 (Homo sapiens, UniProt P09769) (P09769 whole entry): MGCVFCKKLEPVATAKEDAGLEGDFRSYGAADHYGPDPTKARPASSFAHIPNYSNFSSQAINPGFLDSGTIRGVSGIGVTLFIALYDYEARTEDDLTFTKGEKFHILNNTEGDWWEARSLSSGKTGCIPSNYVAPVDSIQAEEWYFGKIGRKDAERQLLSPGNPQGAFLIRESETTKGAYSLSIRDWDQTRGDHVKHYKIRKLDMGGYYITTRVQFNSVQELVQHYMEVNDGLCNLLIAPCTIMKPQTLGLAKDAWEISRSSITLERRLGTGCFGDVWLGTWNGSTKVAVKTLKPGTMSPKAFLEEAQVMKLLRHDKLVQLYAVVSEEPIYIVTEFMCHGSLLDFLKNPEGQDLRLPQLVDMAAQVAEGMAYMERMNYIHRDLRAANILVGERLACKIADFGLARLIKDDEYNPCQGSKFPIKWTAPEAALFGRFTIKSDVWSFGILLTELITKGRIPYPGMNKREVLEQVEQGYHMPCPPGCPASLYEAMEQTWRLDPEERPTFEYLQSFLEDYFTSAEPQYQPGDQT
Excerpt: as §1

[3] = target: kinases of Table 5 (Homo sapiens, UniProt P21802); assay: as above; format: biochemical; design: scale not given here; details: for Inhibition level: kinase FGFR2
Chain of kinases of Table 5 (Homo sapiens, UniProt P21802) (P21802 22-821): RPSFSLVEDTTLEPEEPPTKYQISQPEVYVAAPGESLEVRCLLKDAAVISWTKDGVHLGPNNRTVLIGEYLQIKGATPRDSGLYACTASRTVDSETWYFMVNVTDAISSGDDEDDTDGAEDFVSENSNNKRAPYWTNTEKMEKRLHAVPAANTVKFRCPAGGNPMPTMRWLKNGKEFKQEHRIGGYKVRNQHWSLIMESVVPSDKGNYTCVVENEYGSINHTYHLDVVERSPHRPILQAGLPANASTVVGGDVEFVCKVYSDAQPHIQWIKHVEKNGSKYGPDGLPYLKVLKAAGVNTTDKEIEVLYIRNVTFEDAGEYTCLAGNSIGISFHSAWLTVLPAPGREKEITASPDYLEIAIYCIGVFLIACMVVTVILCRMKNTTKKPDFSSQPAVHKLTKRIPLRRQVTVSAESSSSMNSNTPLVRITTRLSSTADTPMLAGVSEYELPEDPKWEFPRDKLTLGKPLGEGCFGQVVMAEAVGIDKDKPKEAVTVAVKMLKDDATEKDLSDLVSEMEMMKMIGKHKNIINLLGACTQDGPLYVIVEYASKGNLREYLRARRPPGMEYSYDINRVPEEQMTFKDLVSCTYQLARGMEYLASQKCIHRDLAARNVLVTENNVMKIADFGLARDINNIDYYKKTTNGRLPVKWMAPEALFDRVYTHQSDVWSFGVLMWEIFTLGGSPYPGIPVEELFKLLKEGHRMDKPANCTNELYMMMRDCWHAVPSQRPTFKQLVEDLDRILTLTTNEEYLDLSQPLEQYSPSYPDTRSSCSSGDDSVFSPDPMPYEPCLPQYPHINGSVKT
Excerpt: as §1

[4] = target: kinases of Table 5 (Homo sapiens, UniProt P37173); assay: as above; format: biochemical; design: scale not given here; details: kinase TGFBR2 (Part I, plate C7, Domain 1)
Chain of kinases of Table 5 (Homo sapiens, UniProt P37173) (P37173 23-567): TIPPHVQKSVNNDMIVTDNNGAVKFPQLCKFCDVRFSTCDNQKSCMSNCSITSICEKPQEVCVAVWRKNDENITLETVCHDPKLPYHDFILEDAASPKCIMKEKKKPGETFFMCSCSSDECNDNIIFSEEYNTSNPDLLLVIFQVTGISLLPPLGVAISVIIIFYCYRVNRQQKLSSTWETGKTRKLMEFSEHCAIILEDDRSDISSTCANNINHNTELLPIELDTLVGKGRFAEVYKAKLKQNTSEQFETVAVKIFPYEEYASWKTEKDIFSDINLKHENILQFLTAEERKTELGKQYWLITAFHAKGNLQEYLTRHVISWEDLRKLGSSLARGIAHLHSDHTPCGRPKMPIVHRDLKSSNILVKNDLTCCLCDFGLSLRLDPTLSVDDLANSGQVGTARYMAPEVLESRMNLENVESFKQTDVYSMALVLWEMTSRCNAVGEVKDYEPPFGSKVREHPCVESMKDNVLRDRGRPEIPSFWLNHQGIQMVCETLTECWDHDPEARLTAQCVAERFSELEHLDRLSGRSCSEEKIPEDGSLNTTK
Excerpt: as §1

[5] = target: T1, kinases of Table 5 (Homo sapiens, UniProt P41743); assay: as above; format: biochemical; design: scale not given here; details: kinase PRKCI (Part I, plate A2, Domain 0)
T1 sequence (P41743 1-596): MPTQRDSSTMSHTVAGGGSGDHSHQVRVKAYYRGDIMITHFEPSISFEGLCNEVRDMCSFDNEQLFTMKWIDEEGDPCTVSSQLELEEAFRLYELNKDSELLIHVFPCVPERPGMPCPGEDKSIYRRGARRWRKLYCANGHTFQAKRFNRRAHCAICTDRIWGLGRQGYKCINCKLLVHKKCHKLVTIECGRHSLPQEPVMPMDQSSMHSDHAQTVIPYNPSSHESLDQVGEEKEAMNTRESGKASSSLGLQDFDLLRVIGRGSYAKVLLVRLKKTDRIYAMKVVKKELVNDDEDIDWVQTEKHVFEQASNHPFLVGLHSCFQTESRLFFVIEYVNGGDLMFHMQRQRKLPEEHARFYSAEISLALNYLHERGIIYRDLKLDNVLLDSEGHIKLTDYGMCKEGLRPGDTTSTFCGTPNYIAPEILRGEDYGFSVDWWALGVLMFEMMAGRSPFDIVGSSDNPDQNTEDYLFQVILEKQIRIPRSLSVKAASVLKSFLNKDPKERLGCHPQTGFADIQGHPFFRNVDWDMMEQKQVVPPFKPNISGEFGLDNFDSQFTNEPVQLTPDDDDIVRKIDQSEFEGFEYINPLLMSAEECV
Excerpt: as §1

[6] = target: kinases of Table 5 (Homo sapiens, UniProt P68400); assay: as above; format: biochemical; design: scale not given here; details: for Inhibition Results (Level): kinase CSNK2A1 (Part II, plate D9, Domain 0)
Chain of kinases of Table 5 (Homo sapiens, UniProt P68400) (P68400 whole entry): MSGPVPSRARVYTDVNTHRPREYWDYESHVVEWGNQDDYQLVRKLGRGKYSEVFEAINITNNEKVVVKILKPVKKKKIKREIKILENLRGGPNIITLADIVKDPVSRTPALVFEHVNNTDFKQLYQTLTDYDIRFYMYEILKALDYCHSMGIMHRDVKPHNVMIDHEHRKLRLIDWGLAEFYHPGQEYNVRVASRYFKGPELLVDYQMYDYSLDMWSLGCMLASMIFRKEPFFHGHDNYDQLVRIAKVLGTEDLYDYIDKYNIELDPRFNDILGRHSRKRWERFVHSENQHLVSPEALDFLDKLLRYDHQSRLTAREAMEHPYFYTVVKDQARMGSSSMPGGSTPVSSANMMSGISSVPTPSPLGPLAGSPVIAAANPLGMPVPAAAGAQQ
Excerpt: as §1

[7] = target: kinases of Table 5 (Homo sapiens, UniProt Q8IU85); assay: as above; format: biochemical; design: scale not given here; details: inhibitor 100 uM; for Inhibition level: kinase LOC57118; for Inhibition Results (Level): kinase LOC57118 (Part II, plate D2, Domain 1)
Chain of kinases of Table 5 (Homo sapiens, UniProt Q8IU85) (Q8IU85 whole entry): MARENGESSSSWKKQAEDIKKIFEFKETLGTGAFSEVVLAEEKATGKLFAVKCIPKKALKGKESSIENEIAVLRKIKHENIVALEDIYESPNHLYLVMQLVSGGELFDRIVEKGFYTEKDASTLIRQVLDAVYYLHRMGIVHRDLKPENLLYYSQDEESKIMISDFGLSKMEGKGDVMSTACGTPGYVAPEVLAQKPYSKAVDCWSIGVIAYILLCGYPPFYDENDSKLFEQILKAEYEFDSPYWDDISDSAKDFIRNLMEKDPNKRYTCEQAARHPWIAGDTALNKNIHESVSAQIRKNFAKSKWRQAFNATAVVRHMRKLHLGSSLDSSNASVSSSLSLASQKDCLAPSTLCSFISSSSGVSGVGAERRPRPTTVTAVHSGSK
Excerpt: as §1

[8] = target: T2, kinases of Table 5 (Homo sapiens, UniProt Q8IV63); assay: as above; format: biochemical; design: scale not given here; details: kinase LOC51231 (Part I, plate C12, Domain 1)
T2 sequence (Q8IV63 1-474): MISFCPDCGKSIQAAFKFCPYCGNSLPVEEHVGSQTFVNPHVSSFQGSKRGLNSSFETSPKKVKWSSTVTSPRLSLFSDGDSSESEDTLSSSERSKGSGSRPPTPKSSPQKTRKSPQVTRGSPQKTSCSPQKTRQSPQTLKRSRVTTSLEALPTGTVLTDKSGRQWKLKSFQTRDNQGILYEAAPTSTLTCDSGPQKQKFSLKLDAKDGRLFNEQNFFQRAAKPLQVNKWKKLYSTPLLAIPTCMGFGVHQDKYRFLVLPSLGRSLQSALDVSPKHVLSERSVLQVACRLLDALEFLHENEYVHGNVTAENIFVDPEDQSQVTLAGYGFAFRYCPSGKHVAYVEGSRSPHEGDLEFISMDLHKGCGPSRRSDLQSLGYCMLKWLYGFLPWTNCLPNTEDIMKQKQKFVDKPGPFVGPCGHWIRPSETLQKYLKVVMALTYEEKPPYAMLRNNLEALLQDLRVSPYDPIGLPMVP
Excerpt: as §1

[9] = target: T3, kinases of Table 5 (Homo sapiens, UniProt Q92630); assay: as above; format: biochemical; design: scale not given here; details: for Inhibition level: kinase DYRK2; for Inhibition Results (Level): kinase DYRK2 (Part II, plate D11, Domain 1)
T3 sequence (Q92630 1-601): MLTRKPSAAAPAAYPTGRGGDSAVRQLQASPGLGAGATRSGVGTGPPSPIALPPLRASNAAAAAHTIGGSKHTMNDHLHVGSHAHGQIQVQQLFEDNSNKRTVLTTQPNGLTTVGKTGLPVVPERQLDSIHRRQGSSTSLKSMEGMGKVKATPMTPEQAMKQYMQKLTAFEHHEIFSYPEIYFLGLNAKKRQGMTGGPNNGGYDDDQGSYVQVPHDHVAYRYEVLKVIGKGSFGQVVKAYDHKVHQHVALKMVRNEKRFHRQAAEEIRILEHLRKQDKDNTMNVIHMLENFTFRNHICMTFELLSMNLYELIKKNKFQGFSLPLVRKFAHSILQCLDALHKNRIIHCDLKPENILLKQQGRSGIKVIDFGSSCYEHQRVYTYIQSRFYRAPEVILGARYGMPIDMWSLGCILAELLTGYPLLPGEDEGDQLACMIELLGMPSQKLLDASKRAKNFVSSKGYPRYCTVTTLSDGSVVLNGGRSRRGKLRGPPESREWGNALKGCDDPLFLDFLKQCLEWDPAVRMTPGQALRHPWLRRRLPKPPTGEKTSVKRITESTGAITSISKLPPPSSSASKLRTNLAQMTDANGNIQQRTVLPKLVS
Excerpt: as §1

[10] = target: kinases of Table 5 (Homo sapiens, UniProt Q9UIK4); assay: as above; format: biochemical; design: scale not given here; details: for Inhibition level: kinase DAPK2; for Inhibition Results (Level): kinase DAPK2 (Part II, plate H3, Domain 1)
Chain of kinases of Table 5 (Homo sapiens, UniProt Q9UIK4) (Q9UIK4 whole entry): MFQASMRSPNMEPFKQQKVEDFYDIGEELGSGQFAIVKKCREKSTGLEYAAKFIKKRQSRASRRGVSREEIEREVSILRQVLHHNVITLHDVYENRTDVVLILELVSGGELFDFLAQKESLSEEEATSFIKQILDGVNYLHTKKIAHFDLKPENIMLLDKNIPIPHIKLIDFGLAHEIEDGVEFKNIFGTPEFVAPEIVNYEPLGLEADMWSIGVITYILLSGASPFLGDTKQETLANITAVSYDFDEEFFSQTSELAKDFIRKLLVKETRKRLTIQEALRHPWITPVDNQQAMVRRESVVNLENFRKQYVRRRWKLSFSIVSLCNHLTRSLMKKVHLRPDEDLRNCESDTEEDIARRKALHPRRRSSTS
Excerpt: as §1

[11] = target: T4, kinases of Table 5 (Homo sapiens, UniProt Q9UQB9); assay: as above; format: biochemical; design: scale not given here; details: kinase STK13 (Part I, plate G11, Domain 1); inhibitor 100 uM
T4 sequence (Q9UQB9 1-309): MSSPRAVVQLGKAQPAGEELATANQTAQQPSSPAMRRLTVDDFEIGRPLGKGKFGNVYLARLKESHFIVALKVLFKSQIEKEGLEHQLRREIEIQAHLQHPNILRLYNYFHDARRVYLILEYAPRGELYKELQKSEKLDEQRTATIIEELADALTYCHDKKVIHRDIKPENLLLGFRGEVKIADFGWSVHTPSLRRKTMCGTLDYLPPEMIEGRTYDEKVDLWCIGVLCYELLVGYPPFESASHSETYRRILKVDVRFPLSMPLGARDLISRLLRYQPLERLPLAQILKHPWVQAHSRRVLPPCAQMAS
Excerpt: as §1

[12] = system: 39 kinases (Table 4); details: known general specificities of the inhibitors; cited from earlier work
[13] = kinase FGFR2 (Part I, plate G8, Domain 1), inhibitor 100 uM
[14] = kinase CSNK2A1, inhibitor 100 uM
[15] = kinase FGFR2 (Part II, plate B4, Domain 1), inhibitor 100 uM

Row | SMILES | Inhibition level ([1]; inhibitor 100 uM) | Inhibition level ([2]; inhibitor 100 uM) | Inhibition Results (Level) [3, 13] | Inhibition level ([3]; inhibitor 100 uM) | Inhibition Results (Level) ([4]; inhibitor 100 uM) | Inhibition Results (Level) ([5]; inhibitor 100 uM) | Inhibition level [6, 14] | Inhibition level [7] | Inhibition Results (Level) ([8]; inhibitor 100 uM) | Inhibition level ([9]; inhibitor 100 uM) | Inhibition level ([10]; inhibitor 100 uM) | Inhibition Results (Level) [11] | General Specificity [12] | Inhibition Results (Level) ([1]; inhibitor 100 uM) | Inhibition Results (Level) ([2]; inhibitor 100 uM) | Inhibition Results (Level) [3, 15] | Inhibition Results (Level) [7] | Inhibition Results (Level) ([9]; inhibitor 100 uM) | Inhibition Results (Level) ([10]; inhibitor 100 uM) | further results
1 | O=c1c(-c2ccc(O)cc2)coc2cc(O)cc(O)c12 [Genistein] | 2 | 2 | 2 | 2 | 2 | 2 | 2 | 0 | 2 | 2 | 2 | 2 | Tyrosine | – | – | – | – | – | – | Inhibition level ([1]; concentration not given): 0; Inhibition level ([2]; concentration not given): 2; Inhibition Results (Level) ([3]; kinase FGFR2 (Part I, plate G8, Domain 1), inhibitor <3.7 mM): 0; Inhibition level ([3]; concentration not given): 1; Inhibition Results (Level) ([4]; inhibitor <3.7 mM): 1; Inhibition Results (Level) ([5]; inhibitor <3.7 mM): 0; Inhibition level ([6]; kinase CSNK2A1, concentration not given): 0; Inhibition Results (Level) ([8]; inhibitor <3.7 mM): 0; Inhibition level ([9]; concentration not given): 1; Inhibition level ([10]; concentration not given): 0
2 | N#C/C(=C/c1ccc(O)c(O)c1)C(=O)NCc1ccccc1 [AG 490] | 1 | 2 | 2 | 2 | 2 | 2 | 2 | 1 | 0 | 2 | 2 | 2 | Tyrosine | – | – | – | – | – | – | –
3 | COc1cc2ncnc(Nc3cccc(Cl)c3)c2cc1OC [AG 1478] | 2 | 2 | 2 | 2 | 2 | 0 | 2 | 0 | 0 | 2 | 0 | 1 | – | – | – | – | – | – | – | –
4 | CC(=O)c1c(O)c(C)c(O)c(Cc2c(O)c3c(c(C(=O)/C=C/c4ccccc4)c2O)OC(C)(C)C=C3)c1O [Rottlerin (Mallotoxin)] | – | – | 2 | – | 2 | 2 | – | – | 0 | – | – | 1 | – | 0 | 2 | 0 | 0 | 2 | 1 | Inhibition Results (Level) ([6]; inhibitor 100 uM): 2
5 | CN[C@@H]1C[C@H]2O[C@@](C)([C@@H]1OC)n1c3ccccc3c3c4c(c5c6ccccc6n2c5c31)C(=O)NC4 [Staurosporine] | – | – | – | – | – | – | – | – | – | – | – | – | Broad | – | – | – | – | – | – | Inhibition level ([2]; concentration not given): 2; Inhibition Results (Level) ([4]; inhibitor 21.5 uM): 2; Inhibition level [6]: 2; Inhibition Results (Level) ([8]; inhibitor 21.5 uM): 0; Inhibition level ([10]; concentration not given): 2
6 | O=S(=O)(NCCNC/C=C/c1ccc(Br)cc1)c1cccc2cnccc12 [H-89] | – | – | 2 | – | 2 | 2 | – | – | 2 | – | – | 1 | Serine/threonine | 2 | 2 | 2 | 1 | 2 | 2 | Inhibition Results (Level) ([6]; inhibitor 100 uM): 0
7 | O=c1c(O)c(-c2ccc(O)c(O)c2)oc2cc(O)cc(O)c12 [Quercetin] | – | – | 0 | – | 0 | 0 | – | – | 0 | – | – | 2 | – | 2 | 2 | 0 | 0 | 2 | 0 | –
